Values quoted from earlier work, collected in patent publication EP1385541B1, “IMMUNOSTIMULANT COMPOSITIONS COMPRISING AN AMINOALKYL GLUCOSAMINIDE PHOSPHATE AND QS-21” (priority 2000, dated 2001).
Read-outs that look alike come from different tables or passages of the source.

Tests used:
sheep red blood cells = conditions: substantially pure QS-21 saponin, as described in U.S. Patent No. 5,057,540

For QS-21, the critical micellar concentration (in phosphate buffered saline) is given as ~0.02 % (w/v), the critical micellar concentration (in water) is given as “about 0.03 % (w/v)” and the “hemolysis of sheep red blood cells at concentrations of” value (sheep red blood cells) is given as at least 25 µg/mL.
